Source: patent US12351588B2, “Salt forms and solvates of Mcl-1 antagonists” (AMGEN INC., priority 2022, dated 2025)
Counter-ions that a name gives are not always drawn.

How the values were obtained:
[1] = Moisture sorption (DVS, VTI vapor sorption analyzer); type: physicochemical; details: for weight gain (moisture sorption profile): by 95% relative humidity, 25° C.
Procedure: Moisture Sorption: Moisture sorption data was collected at 25° C. using a VTI vapor sorption analyzer. A sample size of approximately 4-10 mg was used in a standard platinum pan. Hygroscopicity was evaluated from 5 to 95% RH in increments of 5% RH. Data for adsorption and desorption cycles were collected. Equilibrium criteria were set at 0.001% weight change in 10 minute with a maximum equilibration time of 180 minutes.

[2] = Solubility of AMG 176 Form 1 in water under neutral conditions; type: physicochemical

## CO[C@H]1/C=C/C[C@H](C)[C@@H](C)S(=O)(=O)NC(=O)c2ccc3c(c2)N(C[C@@H]2CC[C@H]21)C[C@@]1(CCCc2cc(Cl)ccc21)CO3 [crystalline potassium salt hydrate form of AMG 176]
[1]
  weight gain (moisture sorption profile): about 5%
[1]; desorption after sorption to 95% relative humidity
  fate of the sorbed weight gain upon desorption: lost upon desorption

## CO[C@H]1/C=C/C[C@H](C)[C@@H](C)S(=O)(=O)NC(=O)c2ccc3c(c2)N(C[C@@H]2CC[C@H]21)C[C@@]1(CCCc2cc(Cl)ccc21)CO3 [crystalline ammonium salt form of AMG 176]
[1]
  weight gain (moisture sorption profile): about 1.2%

## CO[C@H]1/C=C/C[C@H](C)[C@@H](C)S(=O)(=O)NC(=O)c2ccc3c(c2)N(C[C@@H]2CC[C@H]21)C[C@@]1(CCCc2cc(Cl)ccc21)CO3 [AMG 176 Form 1]
[2]
  solubility: < 0.1 µg/mL
